For experiment [1], the target named is T1, Drosophila Sestrin (Drosophila melanogaster, UniProt A0A0B4LGG4).
T1 sequence (A0A0B4LGG4 1-467): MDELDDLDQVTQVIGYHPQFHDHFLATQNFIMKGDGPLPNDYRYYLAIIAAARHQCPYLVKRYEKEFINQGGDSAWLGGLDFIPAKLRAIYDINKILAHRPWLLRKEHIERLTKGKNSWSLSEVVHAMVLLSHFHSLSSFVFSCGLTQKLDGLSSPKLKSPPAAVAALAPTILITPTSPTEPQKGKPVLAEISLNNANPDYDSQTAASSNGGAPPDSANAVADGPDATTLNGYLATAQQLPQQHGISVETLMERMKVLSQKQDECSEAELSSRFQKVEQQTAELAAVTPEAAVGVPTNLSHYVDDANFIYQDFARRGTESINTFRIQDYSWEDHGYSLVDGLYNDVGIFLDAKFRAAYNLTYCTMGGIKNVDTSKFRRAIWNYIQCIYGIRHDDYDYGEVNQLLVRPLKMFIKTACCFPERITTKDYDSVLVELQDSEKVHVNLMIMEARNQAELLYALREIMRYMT
Format: binding. Particulars: pH 7.4, on ice, 1 h; 150 mM KCl, 2.5 mM MgCl2, 0.1% Triton; Kd derived from IC50.

Experiment [2] concerns the target T2, Drosophila Sestrin (Drosophila melanogaster, UniProt A0A0B4LGG4, L431E).
T2 sequence (A0A0B4LGG4 1-467 L431E): T1 sequence (A0A0B4LGG4 1-467) with L431E
Put plainly: [3H]-leucine binding on immunopurified HA-tagged Sestrin. The note with it: pH 7.4, on ice, 1 h; labelled compound; no binding detected.

The structures appear in SMILES notation. Substitutions are numbered along the chain they refer to.

In turn, `CC(C)C[C@H](N)C(=O)O` [leucine] registered a Kd in experiment [1] of about 100 µM. Also, in experiment [2], the does not bind result is “fly Sestrin L431E does not bind leucine (Fig. 1b)”.

The Kd is the constant that tells how readily two partners part at equilibrium. Low readings indicate a tighter complex, high ones a looser complex.

The values above are taken from PMC10112710 (Nature, 2022).
